{"source": "the NIST ThermoML archive (doi:10.1021/je400243j)", "conditions": "293.15 K, 101.33 kPa, Liquid; for viscosity: Concentric cylinders viscometry; for mass density: Vibrating tube method", "note": "Numbers after ± are expanded uncertainties.", "data": [{"smiles": "CCCCn1cc[n+](CCCS(=O)(=O)O)c1.O=S(=O)([O-])O", "note": "[1-butyl-3-(3-sulfopropyl)-imidazolium hydrogensulfate]", "values": [{"measurement": "viscosity", "result": "1000 ± 100", "unit": "mPa·s"}, {"measurement": "mass density", "result": "1346.9 ± 0.8", "unit": "kg/m3"}]}, {"smiles": "C[n+]1ccn(CCCCS(=O)(=O)O)c1.O=S(=O)([O-])O", "note": "[1-methyl-3-(4-sulfobutyl)-imidazolium hydrogensulfate]", "values": [{"measurement": "viscosity", "result": "1427 ± 180", "unit": "mPa·s"}, {"measurement": "mass density", "result": "1464.7 ± 0.8", "unit": "kg/m3"}]}, {"smiles": "CCCCn1cc[n+](CCCCS(=O)(=O)O)c1.O=S(=O)([O-])O", "note": "[1-butyl-3-(4-sulfobutyl)-imidazolium hydrogensulfate]", "values": [{"measurement": "viscosity", "result": "1592 ± 210", "unit": "mPa·s"}, {"measurement": "mass density", "result": "1361.1 ± 0.8", "unit": "kg/m3"}]}, {"smiles": "C[n+]1ccn(CCCS(=O)(=O)O)c1.O=S(=O)([O-])O", "note": "[1-methyl-3-(3-sulfopropyl)-imidazolium hydrogensulfate]", "values": [{"measurement": "viscosity", "result": "1296 ± 150", "unit": "mPa·s"}, {"measurement": "mass density", "result": "1501.7 ± 0.9", "unit": "kg/m3"}]}]}
